Reference: ChEMBL document CHEMBL6134818, “Development of 3-arylaminothiophenic-2-carboxylic acid derivatives as new FTO inhibitors showing potent antileukemia activities” (Eur J Med Chem, 2025)

How the values were obtained:
[1] = target: Alpha-ketoglutarate-dependent dioxygenase FTO (Homo sapiens, UniProt Q9C0B1); assay: Inhibition of N-terminal truncated FTO demethylation (unknown origin) using 5'-ATTGCCATTCTCGATAGG(dm6A)TCCGGTCAAACCTAGACGAA-3' ssDNA template incubated for 2 hrs by PAGE-based assay
MOLM-13 = assay: Anti-proliferative activity against human MOLM-13 cells assessed as inhibition of cell viability incubated for 72 hrs by CCK8 assay; type: functional, cell-based; details: MOLM-13, 72 h
NB-4 = assay: Anti-proliferative activity against human NB4 cells assessed as inhibition of cell viability incubated for 72 hrs by CCK8 assay; type: functional, cell-based; details: NB-4, 72 h

Sequence of Alpha-ketoglutarate-dependent dioxygenase FTO (Q9C0B1 whole entry, the tested form may be a part): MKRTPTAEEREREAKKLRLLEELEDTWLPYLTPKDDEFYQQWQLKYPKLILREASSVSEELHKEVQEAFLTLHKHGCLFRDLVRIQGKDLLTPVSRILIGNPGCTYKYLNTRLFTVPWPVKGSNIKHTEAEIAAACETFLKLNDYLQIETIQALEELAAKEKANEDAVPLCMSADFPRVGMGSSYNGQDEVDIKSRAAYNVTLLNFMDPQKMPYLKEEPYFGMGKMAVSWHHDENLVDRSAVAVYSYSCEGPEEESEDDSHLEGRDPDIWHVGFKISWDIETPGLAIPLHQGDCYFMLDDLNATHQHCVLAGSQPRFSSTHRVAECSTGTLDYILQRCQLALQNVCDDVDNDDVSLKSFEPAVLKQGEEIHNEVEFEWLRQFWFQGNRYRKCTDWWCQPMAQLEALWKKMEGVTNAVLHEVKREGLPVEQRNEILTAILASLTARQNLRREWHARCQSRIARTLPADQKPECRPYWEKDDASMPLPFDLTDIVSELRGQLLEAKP

Cc1n[nH]c(C)c1-c1cc(C2CC2)c(Nc2ccsc2C(=O)NC#N)c(C2CC2)c1
IC50 [1]: 270 nM

Cc1n[nH]c(C)c1-c1cc(C2CC2)c(Nc2ccsc2C(=O)NO)c(C2CC2)c1
IC50 (MOLM-13): 300 nM | IC50 (NB-4): 300 nM

Cc1n[nH]c(C)c1-c1cc(Cl)c(Nc2ccsc2C(=O)O)c(Cl)c1
IC50 [1]: 680 nM
